# Laboratory results: PMC2920492 (Journal of medicinal chemistry, 2010)
# Key:
# global H3K4me2 [1] = conditions: P19 cell line; cited from earlier work
# recombinant human LSD1 [2] = target: T1, recombinant human LSD1 (Homo sapiens, UniProt O60341); conditions: 10 μM; cited from earlier work
# global H3K4me1 [3] = conditions: HCT116 cells, 48 hr exposure, increasing concentrations; cited from earlier work
# global H3K9me2 = conditions: HCT116 cells, 48 hr exposure, increasing concentrations; cited from earlier work
# global H3K4me2 [4] = conditions: HCT116 cells, 48 hr exposure, increasing concentrations; cited from earlier work
# recombinant human LSD1 [5] = target: T1, recombinant human LSD1; type: biochemical; conditions: read-out: reduction of LSD1 activity (inhibition), 10 μM
# [6] = test system: HCT116 human colon carcinoma; conditions: compound alone; cited from earlier work
# global H3K4me1 [7] = assay: Global H3K4me1 levels by quantitative Western blot in Calu-6 cells; type: cell-based, human; conditions: 10 μM
# global H3K4me2 [8] = assay: Global H3K4me2 levels by quantitative Western blot in Calu-6 cells; type: cell-based, human; conditions: 10 μM
# GATA4 = GATA4 mRNA re-expression by qPCR in Calu-6 cells; type: cell-based, human; conditions: 5 and 10 μM, 24 h
# SFRP2 = SFRP2 mRNA re-expression by qPCR in Calu-6 cells; type: cell-based, human; conditions: 10 μM, 24 h
# [9] = test system: recombinant LSD1/CoRest complex; conditions: cited from earlier work
structure (smiles),measurement,setting,value
N[C@@H]1C[C@H]1c1ccccc1 (racemic) [tranylcypromine],global levels of H3K4me2,global H3K4me2 [1],increase
C/N=C(\NC)NCCCNCCCNCCCN/C(=N/C)NC.Cl [Compound 1c],%LSD1 activity remaining,recombinant human LSD1 [2],14.1 (from [ref. 25]) %
same,global H3K4me1,global H3K4me1 [3],significant global increases
same,global H3K9me2 levels,global H3K9me2,not affecting
same,global H3K4me2,global H3K4me2 [4],significant global increases
Cl.N=C(NCCCNCCCCCCCNCCCNC(=N)NC(=N)NCCC(c1ccccc1)c1ccccc1)NC(=N)NCCC(c1ccccc1)c1ccccc1 [Compound 2d],global H3K4me1,global H3K4me1 [3],significant global increases
same,global H3K9me2 levels,global H3K9me2,not affecting
same,inhibition at 10 µM,recombinant human LSD1 [5],82.9%
same,global H3K4me2,global H3K4me2 [4],significant global increases
same,effect on tumor cell growth,[6],little effect
"Cl.Cl.S=C(NCCCNCCCCCCCNCCCNC(=S)NCC(c1ccccc1)c1ccccc1)NCC(c1ccccc1)c1ccccc1 [Compound 25, 1,15-bis-{3-[1-(2,2-diphenylethyl)thioureado]}-4,12-diazapentadecane]",global H3K4me1 level,global H3K4me1 [7]; 24 h,significant increases
same,global H3K4me1 level,global H3K4me1 [7]; 48 h,most dramatic increases
same,global H3K4me2 level,global H3K4me2 [8]; 24 h,significant increases
same,global H3K4me2 level,global H3K4me2 [8]; 48 h,most dramatic increases
same,effect on GATA4 levels,GATA4,did not produce significant increases
"Cl.Cl.S=C(NCCCNCCCCNCCCNC(=S)NCC(c1ccccc1)c1ccccc1)NCC(c1ccccc1)c1ccccc1 [Compound 26, 1,12-bis-{3-[1-(2,2-diphenylethyl)thioureado]}-4,9-diazadodecane]",global H3K4me1 level,global H3K4me1 [7]; 24 h,significant increase
same,global H3K4me1 level,global H3K4me1 [7]; 48 h,increase
same,global H3K4me2 level,global H3K4me2 [8]; 24 h,decreased
same,global H3K4me2 level,global H3K4me2 [8]; 48 h,reduction
same,effect on GATA4 levels,GATA4,did not produce significant increases
"Cl.Cl.S=C(NCCCNCCCNCCCNC(=S)NCC(c1ccccc1)c1ccccc1)NCC(c1ccccc1)c1ccccc1 [Compound 27, 1,11-bis-{3-[1-(2,2-diphenylethyl)thioureado]}-4,8-diazaundecane]",global H3K4me1 level,global H3K4me1 [7]; 24 h,significant increases
same,increase in SFRP2 expression,SFRP2,4.8 fold
same,global H3K4me2 level,global H3K4me2 [8]; 24 h,significant increases
NNCCc1ccccc1 [phenelzine],nucleosomal demethylation,[9],inactivate
same,global levels of H3K4me2,global H3K4me2 [1],increase
